In ChEMBL document CHEMBL4330065, “Type IIA - Type IIB protein tyrosine kinase inhibitors hybridization as an efficient approach for potent multikinase inhibitor development: Design, synthesis, anti-proliferative activity, multikinase inhibitory activity and molecular modeling of novel indolinone-based ureides and amides” (Eur J Med Chem, 2019):

Assays:
[1] = target: Fibroblast growth factor receptor 1 (Homo sapiens, UniProt P11362); test: Inhibition of FGFR-1 (unknown origin) by ELISA
[2] = target: Platelet-derived growth factor receptor beta (Homo sapiens, UniProt P09619); test: Inhibition of PDGFR-beta (unknown origin) by ELISA
HepG2 = test: Antiproliferative activity against human HepG2 cells after 48 hrs by SRB assay; format: functional, cell-based; settings: HepG2, 48 h
A549 = test: cells; settings: Homo sapiens, A549, 48 h
Description: Antiproliferative activity against human A549 cells after 48 hrs by SRB assay

A498 = test: Antiproliferative activity against human A498 cells after 48 hrs by SRB assay; format: functional, cell-based; settings: A498, 48 h
[3] = Cytotoxicity against human HFB4 cells after 48 hrs by SRB assay; format: cell-based
[4] = target: Vascular endothelial growth factor receptor 2 (Homo sapiens, UniProt P35968)
Description: Inhibition of VEGFR-2 (unknown origin) using biotinylated poly-GluTyr (4:1) as substrate after 5 mins by ELISA

MCF7 = test: cells; settings: Homo sapiens, MCF7, 48 h
Description: Antiproliferative activity against human MCF7 cells after 48 hrs by SRB assay

Chain of Fibroblast growth factor receptor 1 (P11362 whole entry): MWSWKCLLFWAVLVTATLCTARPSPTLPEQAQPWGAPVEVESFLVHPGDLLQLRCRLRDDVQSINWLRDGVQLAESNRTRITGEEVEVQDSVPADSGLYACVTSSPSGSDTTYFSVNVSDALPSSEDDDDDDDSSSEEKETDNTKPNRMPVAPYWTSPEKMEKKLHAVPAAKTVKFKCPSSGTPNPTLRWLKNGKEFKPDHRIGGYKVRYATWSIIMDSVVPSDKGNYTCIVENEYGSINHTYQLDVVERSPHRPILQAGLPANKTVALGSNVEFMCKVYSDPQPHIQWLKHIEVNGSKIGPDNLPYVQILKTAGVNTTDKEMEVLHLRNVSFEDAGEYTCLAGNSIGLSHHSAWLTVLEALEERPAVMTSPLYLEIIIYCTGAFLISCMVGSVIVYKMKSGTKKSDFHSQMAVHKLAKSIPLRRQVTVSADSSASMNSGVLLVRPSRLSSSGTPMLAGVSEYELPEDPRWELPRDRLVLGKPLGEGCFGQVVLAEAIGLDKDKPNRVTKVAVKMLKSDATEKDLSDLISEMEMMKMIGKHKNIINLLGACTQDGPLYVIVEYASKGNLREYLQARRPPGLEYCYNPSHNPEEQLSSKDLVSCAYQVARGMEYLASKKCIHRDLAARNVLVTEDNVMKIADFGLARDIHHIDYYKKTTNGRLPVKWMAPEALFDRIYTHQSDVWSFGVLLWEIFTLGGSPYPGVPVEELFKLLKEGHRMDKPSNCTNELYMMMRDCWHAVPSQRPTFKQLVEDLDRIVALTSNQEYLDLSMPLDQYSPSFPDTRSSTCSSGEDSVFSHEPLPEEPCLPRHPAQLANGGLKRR
Chain of Platelet-derived growth factor receptor beta (P09619 whole entry): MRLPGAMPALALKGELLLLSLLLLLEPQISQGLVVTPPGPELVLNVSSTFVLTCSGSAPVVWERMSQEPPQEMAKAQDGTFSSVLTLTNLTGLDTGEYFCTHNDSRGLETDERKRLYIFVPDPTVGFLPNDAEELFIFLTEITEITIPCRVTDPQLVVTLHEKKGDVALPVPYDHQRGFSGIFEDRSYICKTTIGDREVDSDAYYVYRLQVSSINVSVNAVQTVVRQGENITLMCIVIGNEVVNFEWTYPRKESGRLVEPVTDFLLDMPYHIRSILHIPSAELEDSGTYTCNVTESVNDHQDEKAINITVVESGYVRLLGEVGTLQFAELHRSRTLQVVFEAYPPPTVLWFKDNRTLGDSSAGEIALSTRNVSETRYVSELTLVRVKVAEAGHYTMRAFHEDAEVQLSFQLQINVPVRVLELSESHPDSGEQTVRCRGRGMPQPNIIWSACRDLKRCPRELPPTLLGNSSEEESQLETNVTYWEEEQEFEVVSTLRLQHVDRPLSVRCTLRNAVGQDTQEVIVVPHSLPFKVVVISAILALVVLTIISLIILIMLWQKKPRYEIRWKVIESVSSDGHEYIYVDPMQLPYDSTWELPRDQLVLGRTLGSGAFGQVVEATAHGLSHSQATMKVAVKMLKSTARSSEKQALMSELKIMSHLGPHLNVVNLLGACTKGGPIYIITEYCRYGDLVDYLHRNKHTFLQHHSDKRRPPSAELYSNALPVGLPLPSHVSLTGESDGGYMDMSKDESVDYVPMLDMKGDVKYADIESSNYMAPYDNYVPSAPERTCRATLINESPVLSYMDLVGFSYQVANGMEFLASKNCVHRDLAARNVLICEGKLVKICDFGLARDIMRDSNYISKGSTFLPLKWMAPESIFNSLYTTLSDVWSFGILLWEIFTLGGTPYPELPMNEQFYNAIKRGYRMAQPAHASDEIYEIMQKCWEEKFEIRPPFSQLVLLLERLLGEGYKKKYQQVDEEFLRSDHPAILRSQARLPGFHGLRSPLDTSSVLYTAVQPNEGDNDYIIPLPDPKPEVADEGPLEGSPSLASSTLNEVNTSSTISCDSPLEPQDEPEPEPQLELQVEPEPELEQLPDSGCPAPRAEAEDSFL
Chain of Vascular endothelial growth factor receptor 2 (P35968 whole entry): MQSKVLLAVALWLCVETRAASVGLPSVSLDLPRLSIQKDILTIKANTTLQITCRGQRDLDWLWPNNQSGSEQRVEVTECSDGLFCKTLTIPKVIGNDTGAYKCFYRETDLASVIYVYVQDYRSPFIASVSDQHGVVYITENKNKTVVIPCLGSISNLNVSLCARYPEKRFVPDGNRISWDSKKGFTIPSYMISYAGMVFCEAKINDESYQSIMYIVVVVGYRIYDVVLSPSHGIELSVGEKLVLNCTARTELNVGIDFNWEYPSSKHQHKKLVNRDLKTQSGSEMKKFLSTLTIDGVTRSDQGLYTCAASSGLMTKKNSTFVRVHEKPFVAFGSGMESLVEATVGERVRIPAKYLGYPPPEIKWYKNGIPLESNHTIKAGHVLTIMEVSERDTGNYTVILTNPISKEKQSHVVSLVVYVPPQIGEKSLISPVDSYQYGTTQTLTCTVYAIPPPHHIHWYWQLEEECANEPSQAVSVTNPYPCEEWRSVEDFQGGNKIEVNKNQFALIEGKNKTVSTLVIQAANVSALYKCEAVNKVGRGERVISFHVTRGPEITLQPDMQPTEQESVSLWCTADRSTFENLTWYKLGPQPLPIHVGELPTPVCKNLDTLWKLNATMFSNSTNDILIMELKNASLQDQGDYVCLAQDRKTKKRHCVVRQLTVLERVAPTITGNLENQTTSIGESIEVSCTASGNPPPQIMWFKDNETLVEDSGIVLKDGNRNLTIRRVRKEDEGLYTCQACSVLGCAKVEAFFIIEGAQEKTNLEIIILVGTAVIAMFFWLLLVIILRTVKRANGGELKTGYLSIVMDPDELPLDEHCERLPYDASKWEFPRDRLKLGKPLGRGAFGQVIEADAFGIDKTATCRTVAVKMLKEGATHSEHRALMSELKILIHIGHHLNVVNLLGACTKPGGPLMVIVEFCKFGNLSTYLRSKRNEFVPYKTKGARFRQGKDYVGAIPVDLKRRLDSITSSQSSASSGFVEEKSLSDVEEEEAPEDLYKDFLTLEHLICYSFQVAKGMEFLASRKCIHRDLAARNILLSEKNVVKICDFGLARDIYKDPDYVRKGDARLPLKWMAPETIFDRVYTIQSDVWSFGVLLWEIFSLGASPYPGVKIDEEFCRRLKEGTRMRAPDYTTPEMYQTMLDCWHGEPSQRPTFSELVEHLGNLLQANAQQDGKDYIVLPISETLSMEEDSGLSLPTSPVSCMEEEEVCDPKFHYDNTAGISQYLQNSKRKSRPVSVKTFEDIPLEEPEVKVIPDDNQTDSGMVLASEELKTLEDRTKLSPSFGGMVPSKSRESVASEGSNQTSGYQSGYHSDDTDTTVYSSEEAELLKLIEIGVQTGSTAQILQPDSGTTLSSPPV

Work on `COc1ccc2c(c1)/C(=N/NC(=O)c1ccc(NC(=O)Nc3ccc(Cl)c(C(F)(F)F)c3)cc1)C(=O)N2` yielded an IC50 [1] of 230 nM and an IC50 [2] of 100 nM.
For `COc1cccc(NC(=O)Nc2ccc(C(=O)N/N=C3\C(=O)Nc4ccc(OC)cc43)cc2)c1`, the IC50 (HepG2) was 2930 nM, the IC50 (A549) was over 100000 nM and the IC50 (A498; read-out: IC50) was 780 nM. It also gave an IC50 [3] of 45800 nM, an IC50 [1] of 300 nM and an IC50 [4] of 270 nM. It also gave an IC50 [2] of 110 nM and an IC50 (MCF7) of 27000 nM.
For `O=C(Nc1ccc(C(=O)N/N=C2\C(=O)Nc3ccc(Br)cc32)cc1)Nc1ccc(Cl)c(C(F)(F)F)c1`, the IC50 [1] was 310 nM and the IC50 [2] was 450 nM.
For `COc1ccc(C(=O)Nc2ccc(C(=O)N/N=C3\C(=O)Nc4ccc(Br)cc43)cc2)cc1`, the IC50 [1] was 380 nM and the IC50 [2] was 230 nM.
Molecule `COc1ccc(C(=O)Nc2ccc(C(=O)N/N=C3\C(=O)Nc4ccc(OC)cc43)cc2)cc1` has an IC50 [1] of 460 nM and an IC50 [2] of 90 nM.
With `COc1ccc2c(c1)/C(=N/NC(=O)c1ccc(NC(=O)c3ccc(Cl)cc3)cc1)C(=O)N2` the IC50 [1] was 390 nM and the IC50 [2] was 2010 nM.
`COc1cccc(NC(=O)Nc2ccc(C(=O)N/N=C3\C(=O)Nc4ccc(Br)cc43)cc2)c1` gave an IC50 [1] of 480 nM and an IC50 [2] of 1590 nM.
`COc1ccc2c(c1)/C(=N/NC(=O)c1ccc(NC(=O)Nc3ccc(Cl)cc3)cc1)C(=O)N2` showed an IC50 [1] of 390 nM and an IC50 [2] of 1820 nM.
With `COc1ccc(NC(=O)Nc2ccc(C(=O)N/N=C3\C(=O)Nc4ccc(OC)cc43)cc2)cc1` the IC50 [1] was 170 nM and the IC50 [2] was 330 nM.
`COc1cccc(NC(=O)Nc2ccc(C(=O)N/N=C3\C(=O)Nc4ccc(Cl)cc43)cc2)c1` gave an IC50 [1] of 420 nM and an IC50 [2] of 1290 nM.
`COc1ccc(NC(=O)Nc2ccc(C(=O)N/N=C3\C(=O)Nc4ccc(Br)cc43)cc2)cc1` showed an IC50 [1] of 610 nM and an IC50 [2] of 3790 nM.
Work on `COc1ccc2c(c1)/C(=N/NC(=O)c1ccc(NC(=O)Nc3ccccc3)cc1)C(=O)N2` yielded an IC50 [1] of 280 nM and an IC50 [2] of 3640 nM.
`COc1cccc2c1C(=O)c1c(O)c3c(c(O)c1C2=O)C[C@@](O)(C(=O)CO)C[C@@H]3O[C@H]1C[C@H](N)[C@H](O)[C@H](C)O1` [DOXORUBICIN] showed an IC50 (HepG2) of 4100 nM, an IC50 (A549) of 4360 nM and an IC50 (A498) of 1100 nM. It also gave an IC50 [3] of 80300 nM.
For `CNC(=O)c1cc(Oc2ccc(NC(=O)Nc3ccc(Cl)c(C(F)(F)F)c3)cc2)ccn1` [SORAFENIB], the IC50 (HepG2) was 5230 nM, the IC50 (A549) was 6110 nM and the IC50 [3] was 85000 nM. The IC50 (MCF7) was 4270 nM.
